Series [1] concerns O-GlcNAc on nup62. Description: O-GlcNAc on nup62 immunoprecipitated from treated cells, chemoenzymatic labelling. In kind it is cell-based. To be noted: 250 μM, 24 h; streptavidin probe. The method, then:
Immunoprecipitation of nup62: nup62 was immunoprecipitated from COS-7 cell lysates using the procedure described in Ref.^9. Following washing of the beads, and prior to elution, nup62 was incubated in the absence or presence of BtGH84 (overexpressed and purified as described previously^43) shaking for 2 h at room temperature, which would allow O-GlcNAc levels on nup62 to be assessed. nup62 was subsequently eluted from the beads upon addition of SDS loading buffer and boiled for 10 min.
Click-iT® kit for labelling O-GlcNAc residues: The ‘Click-iT® O-GlcNAc Enzymatic Labeling System’ was purchased from Invitrogen, and essentially the manufacturer's protocol was followed with some alterations. nup62 was immunoprecipitated and eluted from the beads in 1% SDS in 20 mM Hepes, pH 7.9, and boiled for 10 min; this was used as the substrate for the chemoenzymatic labeling using UDP-GalNAz and GalTl. Following the overnight reaction, biotinylated phosphine (in 20% DMF) was added at a final concentration of 50 μM and incubated at 37° C. for […]. The reaction was stopped by the addition of SDS-PAGE loading buffer, and the samples were boiled for 10 min. Samples were run on a gel and transferred. The same procedure as described for the western blots was used, starting from the second blocking step. Blots were then probed with HRP-conjugated streptavidin (Pierce). […]

Series [2] deals with CHO cells. Description: Cell proliferation growth curves over 5 days, CHO cells. It is filed as cell-based, Chinese hamster. Particulars: 50 μM. On the procedure:
(§1) (A) Cell proliferation curves over the course of 5 days for CHO cells following no (circles), 50 μM Ac-GlcNAc (squares) or 50 μM Ac-5SGlcNAc (triangles) treatment. The error bars indicate the deviation from the mean for triplicate measurements. […] Upper panel, probed with anti-O-GlcNAc antibody (CTD110.6); lower panel, probed with anti-actin antibody. (B) Cell proliferation curves over the course of 5 days for EMEG heterozygous mouse embryonic fibroblast cells following no (circles), 50 μM Ac-GlcNAc (squares) or 50 μM Ac-5SGlcNAc (triangles) treatment. The error bars indicate the deviation from the mean for triplicate measurements. […] Upper panel, probed with anti-O-GlcNAc antibody (CTD110.6); lower panel, probed with anti-actin antibody. (C) Western blots of CHO cell lysates following no (C) or Ac-5SGlcNAc administration at 50 μM for 4 days. Probed with (from top to bottom) anti-Spl antibody, anti O-GlcNAc (CTD110.6) antibody and anti-actin antibody. Full blot of the anti-Sp 1 is shown in panel (d). […]
(§2) Cellular responses to Ac-5SGlcNAc (9) treatment and consequent decreases in O-GlcNAc levels were evaluated. […] We quantitatively evaluated cell proliferation and established growth curves over the course of 5 days in both CHO and EMEG32 heterozygous mouse embryonic fibroblast cells treated with 50 μM Ac-5SGlcNAc (9), 50 μM Ac-GlcNAc (G), or vehicle (FIGS. 5A-B).

For series [3], the system named is transcription factor Sp1. Description: Western blot of Sp1 levels in CHO cells. It is filed as cell-based, Chinese hamster. Particulars: 50 μM, 4 days. On the procedure:
as §1, §2
For orientation: A western blot detects proteins with antibodies after separation by electrophoresis.

The subject of series [4] is Primary CLL cells. Kind of series: Primary CLL cells, proliferation and toxicity with or without cytokine stimulation. In kind it is cell-based. Particulars: 5 days. On the procedure: Primary CLL cells, obtained from Dr. David Spaner at the University of Toronto, were tested for their response to Ac-5SGlcNAc (9). Cells were plated at a confluency of 1 million cells/mL, and treated with between 0-250 μM 9, in the presence or absence of cytokine (1000 U/mL IL-2 and 1 μg/mL Resiquimod) stimulation to mimic cancer progression. Cells were observed over the course of 5 days, and harvested after this time into SDS-PAGE loading buffer before being subjected to western blotting.

In series [5] the test system is cell lines examined. Description: Qualitative observation of cell morphology and proliferation in treated cell lines. To be noted: at the doses assayed. In kind it is cell-based. On the procedure:
Despite OGA levels continuing to drop and OGT levels rising over 5 days of dosing, O-GlcNAc levels remained low and unchanged after 24 hours (FIG. 2C).
as §2

Each structure is given as a SMILES string.

Regarding `CC(=O)NC1C(OC(C)=O)SC(COC(C)=O)C(OC(C)=O)C1OC(C)=O` [Compound 9, N-Acetyl-1,3,4,6-tetra-O-acetyl-α-D-5-thio-glucosamine], the “O-GlcNAc modification of immunoprecipitated nup62” value in series [1] is listed as “shows almost no modification”. The growth rate result in series [2] was “indistinguishable from those of Ac-GlcNAc (G) and vehicle treated cells”. Further, in series [3], the Sp1 levels result is reported as “decreases were observed in the levels of transcription factor Sp1”. Further, the toxicity to cells result in series [4] (0-250 μM, unstimulated or stimulated) is given as “not toxic to either unstimulated or stimulated cells”. Also, the “proliferation of cytokine-stimulated cells” value in series [4] (50 μM and higher, IL-2 and Resiquimod stimulation) was “the proliferation that was obvious in untreated stimulated cells was absent”. For the same compound, the “changes in cell morphology or rate of proliferation” value in series [5] is “no apparent changes in cell morphology or rate of proliferation”.

(Values after US20150259371A1, “METHODS AND COMPOUNDS FOR INHIBITING GLYCOSYLTRANSFERASES” (SIMON FRASER UNIVERSITY, priority 2010, published 2015).)
